Results published in US10895019B2, “Encoded self-assembling chemical libraries (ESACHEL)” (Eidgenoessische Technische Hochschule Zurich, priority 2002, dated 2021).

Experiments:
human carbonic anhydrase = assay: carbonic anhydrase activity assay with substrate 4-Nitrophenylacetate (Pocker and Stone); format: biochemical; settings: absorption at 400 nm, read-out: IC50 towards human carbonic anhydrase
Experimental: We measured the inhibitory concentration 50 [IC50] of 4-sulfonamido benzoic acid propylamide using an activity assay described by Pocker and Stone [(1967), Biochemistry 6, 668-678]. In short, we incubated carbonic anhydrase in separate wells of a transparent 96 well microtiter plate with different concentrations of the inhibitor and the substrate 4-Nitrophenylacetate. The proceeding of the reaction was monitored at the increase of absorption at 400 nm due to formation of the product 4-nitrophenol.

streptavidin = streptavidin (Streptomyces avidinii, UniProt P22629); settings: Green (1966); cited from earlier work

IC50 (human carbonic anhydrase) [µM] | Structure (SMILES) | affinity to streptavidin relative to biotin (streptavidin)
6 | CCCNC(=O)c1ccc(S(N)(=O)=O)cc1 [4-sulfonamido benzoic acid propylamide] | 
 | N=C1N[C@H]2[C@H](CS[C@H]2CCCCC(=O)O)N1 [Iminobiotin] | substantially reduced affinity
